Assay results: patent US11684614B2, “Formulations of hydroxypyridonate actinide/lanthanide decorporation agents” (priority 2017, dated 2023)
“And” between values parts separate entries of the source, which are not always exact repeats. Equal values may be shown once.

Assay: Repeated-treatment efficacy for removing an intravenous dose of 238Pu (excretion, tissue retention, clinical observations), female and male arms
Assay type: in vivo, Swiss-Webster mice
Conditions: for % Recovered Dose - Feces per Day: male mice, listed as 3,4,3-LI(1,2-HOPO)
Procedure: The objective of this study was to characterize the efficacy of 3,4,3-L1(1,2-HOPO) at enhancing elimination from an internal plutonium burden in female and male Swiss-Webster mice administered a soluble citrate complex of ^238Pu and treated multiple times, starting at 24 hours after the exposure. Efficacy was evaluated by comparing the tissue contents, urinary and fecal excretions of ^238Pu in treated animals versus untreated animals.
The medical countermeasure 3,4,3-L1(1,2-HOPO) was administered parenterally (ip) or orally (po) via consecutive injections or gavages (six daily or twelve twice daily) starting at 24 hours post contamination at the following four selected doses: 30 μmol/kg ip, 150 μmol/kg po, 300 μmol/kg po, and 600 μmol/kg po (equivalent to respective approximate human doses range of […], using the accepted conversion system of mouse doses into human equivalent doses—HED—based on body surface area). Oral doses also included the permeability enhancer selected during formulation development work.
• Challenge isotope: ^238Pu • Challenge dose: 25 nCi (i.e., approximately 0.8 μCi/kg) • Route of contamination: Intravenous (iv) tail-vein • Route of treatment: Intraperitoneal Injection (ip) or Oral (po) • Frequency of treatment: Multiple (once- or twice-daily for 6 days) doses, starting 24 hr postcontamination • Treatment dose calculation: Dose calculations (mg/kg or μmol/kg) for the decorporation agent were based on the individual body weight measured after contamination. • Study Duration: 11 days, in-life
c. […] Test article and control dose formulations were prepared within 1 day of dose administration, by weighing out the appropriate amount of test article, dispersing in vehicle. For ip solutions, the test article was used alone, while for oral suspensions, a mixture of test article and excipient (90:10, w:w) was used. The pH was adjusted to 7.0-7.4 for ip administration and 5.0-5.5 for oral administration with sterile NaOH. Dose formulations were prepared at room temperature and filter-sterilized. • Storage: 2-8° C.; refrigerated; protected from light. • Characterization: The concentration of each test article formulation was verified by high-performance liquid chromatography-mass spectrometry. • Test Article Handling: Test, reference, and control article formulations were handled with the use of eye protection, gloves, and a protective laboratory coat. • Correct Dose Assurance: The test article was weighed with calibrated balances. The administration of each dose formulation was properly documented, and the amount administered to each animal recorded.
e. Experimental Procedures (In-Life Evaluations and Euthanasia) • Contamination: Single administration by intravenous (iv) tail-vein injection (0.2 mL injection volume) under isoflurane anesthesia. Three standard 0.2 mL injections were performed into polyethylene bottles and pre-loaded with aliquots of concentrated nitric acid on each injection day. Six female and six male mice were culled for necropsy 1 hr post-contamination and were used as standards. A11 standards were processed and counted together with the final samples to allow verification of the contamination dose. • Dose Administration: Single administration by intraperitoneal injection (ip) or oral gavage (po) under isoflurane anesthesia. • Mortality/Morbidity: Assessed at least once daily. • Clinical Observations: Recorded once daily (4 hr post-dose on day of treatment), or more often as clinical signs warranted. […]

## O=C(NCCCN(CCCCN(CCCNC(=O)c1cccc(=O)n1O)C(=O)c1cccc(=O)n1O)C(=O)c1cccc(=O)n1O)c1cccc(=O)n1O [3,4,3-L1(1,2-HOPO)]
Group I, feces day 1, Day 11 necropsy
  % Recovered Dose - Feces per Day: 9.44% and 11.73% and 10.15% and 5.92% and 9.00% and 6.11% and 8.55% and 9.19%
Group I, feces day 3, Day 11 necropsy
  % Recovered Dose - Feces per Day: 7.33% and 7.00% and 5.92% and 6.28% and 9.54% and 7.12% and 7.60% and 4.73%
Group I, feces day 4, Day 11 necropsy
  % Recovered Dose - Feces per Day: 4.73% and 4.29% and 4.45% and 3.39% and 5.21% and 4.16% and 3.65% and 3.13%
Group I, feces day 5, Day 11 necropsy
  % Recovered Dose - Feces per Day: 2.15% and 1.67% and 2.13% and 2.90% and 1.73% and 2.06% and 1.56% and 2.26%
Group I, feces day 6, Day 11 necropsy
  % Recovered Dose - Feces per Day: 1.96% and 1.64% and 1.89% and 2.15% and 2.00% and 1.56% and 1.92% and 1.66%
Group I, feces day 7, Day 11 necropsy
  % Recovered Dose - Feces per Day: 1.48% and 2.52% and 0.83% and 1.51% and 0.94% and 1.29% and 1.15% and 1.02%
Group I, feces day 8, Day 11 necropsy
  % Recovered Dose - Feces per Day: 0.86% and 0.84% and 0.55% and 0.76% and 1.22% and 0.87%
Group I, feces day 9, Day 11 necropsy
  % Recovered Dose - Feces per Day: 0.53% and 0.71% and 0.43% and 0.64% and 0.57% and 0.47% and 0.49%
Group I, feces day 10, Day 11 necropsy
  % Recovered Dose - Feces per Day: 0.46% and 0.52% and 0.43% and 0.45% and 0.40% and 0.47% and 0.36%
Group I, feces day 11, Day 11 necropsy
  % Recovered Dose - Feces per Day: 0.47% and 0.38% and 0.37% and 0.43% and 0.48% and 0.44% and 0.50%
Group L, feces day 2, Day 11 necropsy
  % Recovered Dose - Feces per Day: 9.49% and 10.37% and 11.59% and 15.06% and 13.00% and 13.15% and 16.38% and 8.84%
Group L, feces day 3, Day 11 necropsy
  % Recovered Dose - Feces per Day: 2.02% and 3.23% and 3.48% and 4.47% and 2.87% and 3.37% and 4.43% and 2.71%
Group L, feces day 4, Day 11 necropsy
  % Recovered Dose - Feces per Day: 1.98% and 2.69% and 3.71% and 6.81% and 3.67% and 4.04% and 3.55% and 3.76%
Group L, feces day 5, Day 11 necropsy
  % Recovered Dose - Feces per Day: 1.04% and 1.47% and 2.57% and 2.42% and 1.75% and 1.82% and 2.26% and 1.72%
Group L, feces day 6, Day 11 necropsy
  % Recovered Dose - Feces per Day: 3.32% and 1.94% and 2.97% and 2.78% and 2.36% and 3.15% and 2.15% and 2.74%
Group L, feces day 7, Day 11 necropsy
  % Recovered Dose - Feces per Day: 1.56% and 1.72% and 1.53% and 1.45% and 2.10% and 1.44% and 1.80% and 1.29%
Group L, feces day 8, Day 11 necropsy
  % Recovered Dose - Feces per Day: 1.03% and 1.27% and 1.54% and 1.58% and 1.33% and 1.26% and 1.23% and 0.92%
Group L, feces day 9, Day 11 necropsy
  % Recovered Dose - Feces per Day: 0.88% and 0.94% and 0.96% and 0.57% and 1.17% and 1.08% and 0.78%
Group L, feces day 10, Day 11 necropsy
  % Recovered Dose - Feces per Day: 0.60% and 0.98% and 0.96% and 0.65% and 0.99% and 1.01% and 1.02% and 0.90%
Group L, feces day 11, Day 11 necropsy
  % Recovered Dose - Feces per Day: 0.63% and 0.89% and 0.79% and 0.66% and 0.87% and 0.84%
Group M, feces day 2, Day 11 necropsy
  % Recovered Dose - Feces per Day: 16.84% and 15.20% and 15.54% and 13.29% and 15.04% and 19.29% and 14.53% and 19.54%
Group M, feces day 3, Day 11 necropsy
  % Recovered Dose - Feces per Day: 4.32% and 6.13% and 4.17% and 2.65% and 4.16% and 6.33% and 4.24% and 3.82%
Group M, feces day 4, Day 11 necropsy
  % Recovered Dose - Feces per Day: 3.42% and 4.94% and 4.01% and 4.02% and 6.06% and 4.40% and 3.22% and 2.93%
Group M, feces day 5, Day 11 necropsy
  % Recovered Dose - Feces per Day: 1.00% and 2.50% and 1.52% and 1.62% and 1.76% and 1.90% and 1.20% and 1.08%
Group M, feces day 6, Day 11 necropsy
  % Recovered Dose - Feces per Day: 10.71% and 2.32% and 2.47% and 1.70% and 3.63% and 2.41% and 1.58% and 1.99%
Group M, feces day 7, Day 11 necropsy
  % Recovered Dose - Feces per Day: 5.02% and 2.31% and 1.09% and 1.15% and 1.51% and 1.35% and 0.86% and 1.01%
Group M, feces day 8, Day 11 necropsy
  % Recovered Dose - Feces per Day: 1.81% and 1.55% and 1.22% and 0.94% and 1.24% and 2.07% and 0.87% and 1.10%
Group M, feces day 9, Day 11 necropsy
  % Recovered Dose - Feces per Day: 1.01% and 1.12% and 0.73% and 0.57% and 0.96% and 0.64% and 0.76%
Group M, feces day 10, Day 11 necropsy
  % Recovered Dose - Feces per Day: 0.48% and 0.47% and 0.92% and 0.59% and 0.65% and 1.22% and 0.76% and 0.85%
Group M, feces day 11, Day 11 necropsy
  % Recovered Dose - Feces per Day: 0.57% and 0.46% and 0.82% and 0.41% and 0.70% and 1.12% and 0.68% and 1.01%
male, 6 daily oral treatments, 600 μmol/kg, 11 days post-contamination
  increase in total 238Pu excretion compared to the control groups: up to 156%
male, all analyzed tissues, all dosing regimens
  tissue content of 238Pu compared to saline control group: large reductions
male, all treated groups
  full body content of 238Pu compared to saline control groups: significant reductions
male, once-daily oral 600 μmol/kg, 11 days post-contamination
  decrease in body burden compared to the control groups: up to 48%
male, oral once-daily 300 and 600 μmol/kg
  decorporation efficacy relative to parenteral DTPA: equivalent to that of parenteral treatment with DTPA
male, oral twice-daily 150 and 300 μmol/kg or once-daily 300 and 600 μmol/kg, 7 days post-contamination
  238Pu elimination enhancement: significant
